Measured values published in PMC3264873 (Pharmaceutical Research, 2011).
Several values for one entry are separate records, joined by “and”; a condition that tells them apart may be missing. Equal entries are not always repeated. Where two headings read alike, the source gives them in different places. Values belong to the molecule of their own block, whether it stands above or below them.

Columns and labels:
OATP1B1 [1] = target: T1, OATP1B1 (Homo sapiens, UniProt Q9Y6L6); experiment: Screening for inhibition of OATP1B1-mediated estradiol-17β-glucuronide uptake; settings: for Classification as OATP1B1 inhibitor (more than 50% inhibition of E17βG uptake): 20 μM test compound
T1 sequence (Q9Y6L6 1-691): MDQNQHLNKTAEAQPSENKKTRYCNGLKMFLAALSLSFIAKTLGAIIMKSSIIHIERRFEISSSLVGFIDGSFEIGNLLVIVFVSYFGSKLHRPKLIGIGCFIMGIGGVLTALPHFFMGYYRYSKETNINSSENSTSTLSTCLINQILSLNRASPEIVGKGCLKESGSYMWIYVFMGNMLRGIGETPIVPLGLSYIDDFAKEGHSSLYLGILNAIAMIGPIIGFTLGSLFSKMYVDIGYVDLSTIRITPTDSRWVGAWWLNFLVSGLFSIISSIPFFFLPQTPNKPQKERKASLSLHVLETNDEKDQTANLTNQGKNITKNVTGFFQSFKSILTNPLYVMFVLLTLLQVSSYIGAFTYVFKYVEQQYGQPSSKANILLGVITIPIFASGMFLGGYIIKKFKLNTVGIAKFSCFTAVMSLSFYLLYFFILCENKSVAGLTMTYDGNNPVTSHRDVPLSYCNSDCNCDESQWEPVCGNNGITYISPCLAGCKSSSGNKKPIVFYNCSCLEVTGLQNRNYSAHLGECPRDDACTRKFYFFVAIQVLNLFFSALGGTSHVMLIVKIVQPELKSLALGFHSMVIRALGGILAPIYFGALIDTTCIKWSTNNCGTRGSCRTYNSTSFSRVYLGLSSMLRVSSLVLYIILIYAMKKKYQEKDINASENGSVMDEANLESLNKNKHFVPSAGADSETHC

[2] = cited from earlier work; for Imax, maximum systemic plasma concentration of the inhibitor: amprenavir recalculated from fosamprenavir data, ref [23]–[28]; for Fa, fraction of the inhibitor dose absorbed (maximum oral bioavailability): ref [23]–[25]
OATP1B1 [3] = target: T1, OATP1B1; experiment: Concentration-dependent inhibition of OATP1B1-mediated atorvastatin uptake; type: cell-based
OATP1B1 [4] = target: T1, OATP1B1; experiment: Calculation of R-values; settings: for R-value E: ka = 0.03, Fa published value (lopinavir Fa = 1); for Range of the eight R-values A–H: all eight calculation variants; for Average (mean) R-value: mean of the eight R-values A–H
OATP1B1 [5] = target: T1, OATP1B1; experiment: Michaelis-Menten uptake kinetics in HEK293 cells stably expressing OATP1B1; type: cell-based
[6] = clinical co-administration with the inhibitor; ref [37],[27],[43],[51],[46]; cited from earlier work
[7] = ref [3],[23],[24]; cited from earlier work
OATP1B1 [8] = target: T1, OATP1B1; settings: IC50 from another study and cell system; ref [3]; cited from earlier work
[9] = Eq. 2 (IC50), ka = 0.03, Fa = 1, International Transporter Consortium method
[10] = Eq. 2 (IC50), ka = 0.1, Fa published value (lopinavir Fa = 1)
[11] = Eq. 3 (Ki), ka = 0.1, Fa = 1, Hirano et al. method
[12] = Eq. 3 (Ki), ka = 0.1, Fa published value (lopinavir Fa = 1)

Classification as OATP1B1 inhibitor (more than 50% inhibition of E17βG uptake) (OATP1B1 [1]): inhibitors
SMILES: CC(=O)Oc1ccc2c(c1)Oc1cc(OC(C)=O)ccc1C21OC(=O)c2cc(C(=O)O)ccc21 [5-CFDA]

Classification as OATP1B1 inhibitor (more than 50% inhibition of E17βG uptake) (OATP1B1 [1]): inhibitors
SMILES: Nc1ncnc2c1ncn2CCOCP(=O)(O)O [Adefovir]

Ki (OATP1B1 [3]): 9520 nM | R-value B (OATP1B1 [4]; [9]): 1.21 | R-value D (OATP1B1 [4]; Eq. 2 (IC50), ka = 0.1, Fa = 1): 1.54 | R-value C (OATP1B1 [4]; [10]): 1.49 | R-value F (OATP1B1 [4]; Eq. 3 (Ki), ka = 0.03, Fa = 1): 1.37 | R-value E (OATP1B1 [4]; Eq. 3 (Ki)): 1.34 | R-value H (OATP1B1 [4]; [11]): 1.95 | R-value G (OATP1B1 [4]; [12]): 1.87 | Range of the eight R-values A–H (OATP1B1 [4]): 1.19–1.95 and < 2 | Average (mean) R-value (OATP1B1 [4]): 1.49
SMILES: CC(C)CN(C[C@@H](O)[C@H](Cc1ccccc1)NC(=O)O[C@H]1CCOC1)S(=O)(=O)c1ccc(N)cc1 [Amprenavir]
Imax, maximum systemic plasma concentration of the inhibitor [2]: 11.2 µM | Fa, fraction of the inhibitor dose absorbed (maximum oral bioavailability) [2]: 0.9

IC50 (OATP1B1 [3]): 1610 nM | Ki (OATP1B1 [3]): 910 nM | R-value B (OATP1B1 [4]): 2.38 | R-value C (OATP1B1 [4]): 3.63 | R-value D (OATP1B1 [4]): 4.68 | R-value F (OATP1B1 [4]): 3.43 | R-value G (OATP1B1 [4]): 5.64 | R-value H (OATP1B1 [4]): 7.49 | R-value E (OATP1B1 [4]; Eq. 3 (Ki)): 2.87 | Average (mean) R-value (OATP1B1 [4]): 4.02
SMILES: COC(=O)N[C@H](C(=O)N[C@@H](Cc1ccccc1)[C@@H](O)CN(Cc1ccc(-c2ccccn2)cc1)NC(=O)[C@@H](NC(=O)OC)C(C)(C)C)C(C)(C)C [Atazanavir]
Imax, maximum systemic plasma concentration of the inhibitor [2]: 4.47 µM | Fa, fraction of the inhibitor dose absorbed (maximum oral bioavailability) [2]: 0.68

Classification as OATP1B1 inhibitor (more than 50% inhibition of E17βG uptake) (OATP1B1 [1]): inhibitors
SMILES: CCOc1nc2cccc(C(=O)O)c2n1Cc1ccc(-c2ccccc2-c2nnn[nH]2)cc1 [Candesartan]

Classification as OATP1B1 inhibitor (more than 50% inhibition of E17βG uptake) (OATP1B1 [1]): inhibitors
SMILES: CC/C(=C(/CC)c1ccc(O)cc1)c1ccc(O)cc1 [Diethylstilbestrol]

Vmax of OATP1B1-mediated uptake (OATP1B1 [5]; E17βG 1–200 μM, 96-well plates, HEK293-OATP1B1): 1.37 (± 0.12) pmol/min/mg protein | Uptake in OATP1B1 cells relative to mock-transfected cells (OATP1B1 [5]; at 5 min (E17βG) and 2 min (atorvastatin)): at least 8 times
SMILES: C[C@]12CC[C@@H]3c4ccc(O)cc4CC[C@H]3[C@@H]1CC[C@@H]2O[C@@H]1O[C@H](C(=O)O)[C@@H](O)[C@H](O)[C@H]1O [Estradiol-17-β-glucuronide]

Inhibition of atorvastatin uptake (in words) (OATP1B1 [3]; investigated concentration interval 0.1–100 μM, 1 μM atorvastatin): did not inhibit atorvastatin uptake
SMILES: CC(C)OC(=O)C(C)(C)Oc1ccc(C(=O)c2ccc(Cl)cc2)cc1 [Fenofibrate]
Fa, fraction of the inhibitor dose absorbed (maximum oral bioavailability) [2]: 0.81

IC50 (OATP1B1 [3]): 156000 nM | Ki (OATP1B1 [3]): 68100 nM | R-value B (OATP1B1 [4]; [9]): 1.05 | R-value D (OATP1B1 [4]; Eq. 2 (IC50), ka = 0.1, Fa = 1): 1.08 | R-value C (OATP1B1 [4]; [10]): 1.08 | R-value F (OATP1B1 [4]; Eq. 3 (Ki), ka = 0.03, Fa = 1): 1.11 | R-value E (OATP1B1 [4]; Eq. 3 (Ki)): 1.11 | R-value H (OATP1B1 [4]; [11]): 1.19 | R-value G (OATP1B1 [4]; [12]): 1.19 | Range of the eight R-values A–H (OATP1B1 [4]): 1.05–1.19 | Average (mean) R-value (OATP1B1 [4]): 1.11
SMILES: Cc1ccc(C)c(OCCCC(C)(C)C(=O)O)c1 [Gemfibrozil]
Fold AUC change Atorvastatin [6]: 1.2 fold | Imax, maximum systemic plasma concentration of the inhibitor [2]: 99.9 µM | Fa, fraction of the inhibitor dose absorbed (maximum oral bioavailability) [2]: 0.98 | Fu, fraction of the inhibitor that is unbound [7]: 0.05

Classification as OATP1B1 inhibitor (more than 50% inhibition of E17βG uptake) (OATP1B1 [1]): inhibitors
SMILES: C[C@H](CCC(=O)NCC(=O)O)[C@H]1CC[C@H]2[C@@H]3[C@H](O)C[C@@H]4C[C@H](O)CC[C@]4(C)[C@H]3CC[C@]12C [Glycochenodeoxycholate]

Classification as OATP1B1 inhibitor (more than 50% inhibition of E17βG uptake) (OATP1B1 [1]): inhibitors
SMILES: C[C@H](CCC(=O)NCC(=O)O)[C@H]1CC[C@H]2[C@@H]3CC[C@@H]4C[C@H](O)CC[C@]4(C)[C@H]3C[C@H](O)[C@]12C [Glycodeoxycholate]

Classification as OATP1B1 inhibitor (more than 50% inhibition of E17βG uptake) (OATP1B1 [1]): inhibitors
SMILES: COc1ccc2c(c1)c(CC(=O)O)c(C)n2C(=O)c1ccc(Cl)cc1 [Indomethacin]

Classification as OATP1B1 inhibitor (more than 50% inhibition of E17βG uptake) (OATP1B1 [1]): not identified as inhibitors | inhibition at 5 min, 75 µM (OATP1B1 [1]; human, pH 7.4, Inhibition of E17βG uptake, 75 μM test compound (data not shown)): > 50% | inhibition at 5 min, 100 µM (OATP1B1 [1]; human, pH 7.4, Inhibition of E17βG uptake, 100 μM test compound (data not shown)): > 50%
SMILES: N[C@@H](Cc1cc(I)c(Oc2cc(I)c(O)c(I)c2)c(I)c1)C(=O)O [Levothyroxin]

IC50 (OATP1B1 [3]): 740 nM | Ki (OATP1B1 [3]): 320 nM | R-value B (OATP1B1 [4]): 1.76 | R-value C (OATP1B1 [4]): 2.56 | R-value D (OATP1B1 [4]): 2.56 | R-value F (OATP1B1 [4]): 2.74 | R-value G (OATP1B1 [4]): 4.58 | R-value H (OATP1B1 [4]): 4.58 | R-value E (OATP1B1 [4]; Eq. 3 (Ki)): 2.74 | Range of the eight R-values A–H (OATP1B1 [4]): 1.76–4.58 | Average (mean) R-value (OATP1B1 [4]): 2.91
SMILES: Cc1cccc(C)c1OCC(=O)N[C@@H](Cc1ccccc1)[C@@H](O)C[C@H](Cc1ccccc1)NC(=O)[C@H](C(C)C)N1CCCNC1=O [Lopinavir]
R-value B calculated in the literature (OATP1B1 [8]): 9.2
